In patent US6057311A, “Benzodiazonine derivatives binding to cholecystokinin or gastrin receptors” (James Black Foundation Limited, priority 1996, dated 2000):

Experiments:
CCKB receptor = target: T1, CCKB receptor (Mus musculus, UniProt P56481); assay: radioligand binding assay at the CCKB receptor in mouse cortical membranes ([125I]-CCK8S); settings: [125I]-CCK8S 200 pM, 150 min at 21±3° C.; for Ki: pH 7.2, read-out: pKi (Mouse cortex) (converted); for pKi (Mouse cortex): pH 7.2
T1 construct: The cortex was dissected, weighed and homogenised in 40 ml ice-cold buffer; tissue Charles River (animals); host or cells: cerebral cortex of male CD1 mice, membranes
T1 sequence (P56481 1-453): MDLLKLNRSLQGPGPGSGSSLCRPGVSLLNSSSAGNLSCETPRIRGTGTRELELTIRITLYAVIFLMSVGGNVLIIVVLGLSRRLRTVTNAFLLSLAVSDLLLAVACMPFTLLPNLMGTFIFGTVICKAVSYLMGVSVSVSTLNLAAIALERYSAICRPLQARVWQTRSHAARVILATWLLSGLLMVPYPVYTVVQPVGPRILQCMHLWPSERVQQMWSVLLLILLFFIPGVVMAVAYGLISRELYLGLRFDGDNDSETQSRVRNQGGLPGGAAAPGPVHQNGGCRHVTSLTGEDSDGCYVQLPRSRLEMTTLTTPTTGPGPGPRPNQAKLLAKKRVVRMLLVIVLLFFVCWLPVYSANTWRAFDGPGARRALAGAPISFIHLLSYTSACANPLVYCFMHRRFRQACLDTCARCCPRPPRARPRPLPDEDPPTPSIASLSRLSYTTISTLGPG
Description: The compounds of the examples were tested for binding at the CCKB receptor in mouse cortical membranes by means of a radioligand binding assay. The procedure was as follows:
The whole brains from male mice (CD1 22-25 g; Charles River) were removed and placed in ice-cold buffer (pH7.2@21±3° C.) of the following composition (mM); 10 HEPES, 130 NaCl, 4.7 KCl, 5 MgCl2, 1 EDTA and containing 0.25 g.1^-1 bacitracin. The cortex was dissected, weighed and homogenised in 40 ml ice-cold buffer using a Teflon-in-glass homogeniser. The homogenate was centrifuged at 39,800 g for 20 min at 4° C., the supernatant discarded and the pellet resuspended by homogenisation in fresh buffer. The homogenate was recentrifuged (39,800 g; 20 min @4° C.) and the final pellet was resuspended in HEPES buffer to give a tissue concentration of 2 mg.ml^-1 (original wet weight).
The membranes (400 μl) were incubated for 150 min at 21±3° C. in a final volume of 0.5 ml with HEPES buffer containing [^125 I]-CCK8S (0.05 ml; 200 pM NEN 2200 Ci.mmol^-1) and competing compound. Total and non-specific binding of [^125 I]-CCK8S were defined using 0.05 ml of buffer and 0.05 ml of […] L-365,260, respectively. The assay was terminated by rapid filtration through pre-soaked Whatman GF/B filters using a Brandell Cell harvester. The filters were washed (3×3 ml) with ice-cold 50 mM Tris-HCl (pH7.4@4° C.) and bound radioactivity determined by counting (1 min.) in a gamma-counter.

CCKA = target: T2, CCKA (Cavia porcellus, UniProt Q63931); assay: CCKA binding assay, guinea pig pancreas membranes ([125I]-CCK8(S)); settings: [125I]-CCK8(S) 200 pM, 0.375 μM PD134,308, 150 min at 21±3° C., pH 7.2, read-out: pKi (Guinea pig pancreas) (converted)
T2 construct: The pancreatata were removed from male guinea-pigs; from tissue; host or cells: pancreas of male Dunkin Hartley guinea pigs, membranes
T2 sequence (Q63931 1-430): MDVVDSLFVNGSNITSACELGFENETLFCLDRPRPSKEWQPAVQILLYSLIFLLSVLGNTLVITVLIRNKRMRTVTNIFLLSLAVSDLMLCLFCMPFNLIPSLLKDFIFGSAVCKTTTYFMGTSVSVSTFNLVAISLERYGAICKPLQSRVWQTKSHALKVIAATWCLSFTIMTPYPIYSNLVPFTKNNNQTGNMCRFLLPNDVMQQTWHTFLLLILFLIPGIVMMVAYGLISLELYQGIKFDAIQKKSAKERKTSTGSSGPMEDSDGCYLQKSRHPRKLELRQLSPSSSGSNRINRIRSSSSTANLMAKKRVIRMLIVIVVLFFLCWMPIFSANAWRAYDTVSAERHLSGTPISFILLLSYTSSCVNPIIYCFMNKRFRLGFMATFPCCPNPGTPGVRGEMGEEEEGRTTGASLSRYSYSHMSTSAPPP
Description: The compounds of the examples were also tested in a CCKA binding assay as follows:
The pancreatata were removed from male guinea-pigs (200-300 g; Dunkin Hartley) and placed in ice-cold HEPES buffer (pH 7.2@21±3° C.). The pancreatata were homogenised in 40 ml ice-cold HEPES buffer using a polytron (Brinkmann, PT10, setting 10) 4×1 second. The homogenate was centrifuged at 39,800 g for 15 min at 4° C. The supernatant was discarded and the pellet re-suspended using a Teflon-in-glass homogeniser in 20 volumes of fresh buffer and re-centrifuged as above. The final pellet was re-suspended using a Teflon-in-glass homogeniser to a tissue concentration of 1 mg.ml^-1 (original wet weight), and filtered through 500 μm pore-size Nytex mesh.
The membranes (400 μl; containing 0.375 μM PD134,308) were incubated for 150 minutes at 21±3° C. in a final volume of 0.5 ml with HEPES buffer containing [^125 I]-CCK8 (S) (50 μl; 200 pM) and competing compound. Total and non-specific binding of [^125 I]-CCK8 (S) were defined using 50 μl of buffer and 50 μl of 100 nM L-364,718 respectively. The assay was terminated by rapid filtration through pre-soaked Whatman GF/B filters using a Brandell Cell Harvester. The filters were washed (3×3 ml) with ice-cold 50 mM Tris HCl (pH 7.4 at 4° C.) and bound radioactivity was determined by counting (1 min) in a gamma counter.

Ki (CCKB receptor) [nM]	Compound	other results
126	COc1ccc2c(c1)C(=O)C[C@@H](C(=O)NCC(=O)O)N(C(C)=O)[C@H](CC13CC4CC(CC(C4)C1)C3)C(=O)N2Cc1ccccc1 (relative stereo) [Example 69, (+/-)-trans-4-acetyl-3-(1-adamantyl)methyl-1-benzyl-5-carboxymethylaminocarbonyl-2,7-dioxo-9-methoxy-2,3,4,5,6,7-hexahydro-1H-1,4-benzodiazonine]	–
6310	CC1CCN(C(=O)Nc2cc(C(=O)O)cc(C(=O)O)c2)CC(=O)N(Cc2ccccc2)c2ccccc21 (centres unmarked) [Example 47, 1-benzyl-7-methyl-4-(3,5-dicarboxyphenyl)carbamyl-2-oxo-2,3,4,5,6,7-hexahydro-1H-1,4-benzodiazonine]	–
–	CC1CCN(C(=O)Nc2cccc(C(=O)O)c2)CC(=O)N(Cc2ccccc2)c2ccccc21 (centres unmarked) [Example 48, 1-benzyl-7-methyl-4-(3-carboxyphenyl)carbamyl-2-oxo-2,3,4,5,6,7-hexahydro-1H-1,4-benzodiazonine]	pKi (Mouse cortex) (CCKB receptor): 4.8
6310	Cc1cccc(NC(=O)N2CCCc3ccccc3N(CC(=O)OC(C)(C)C)C(=O)C2)c1 [Example 49, 1-tert-butyloxycarbonylmethyl-4-(3-methylphenyl)carbamyl-2-oxo-2,3,4,5,6,7-hexahydro-1H-1,4-benzodiazonine]	–
–	CCC1CCN(C(=O)c2cc3ccccc3[nH]2)CC(=O)N(Cc2ccccc2)c2ccccc21 (centres unmarked) [Example 53, 1-benzyl-7-ethyl-4-(2-indolecarbonyl)-2-oxo-2,3,4,5,6,7-hexahydro-1H-1,4-benzodiazonine]	Ki (CCKA): 631 nM
3980	Cc1cccc(NC(=O)N2CCCc3ccccc3N(Cc3ccccc3)C(=O)C2)c1 [Example 54, 1-benzyl-4-(3-methylphenyl)carbamyl-2-oxo-2,3,4,5,6,7-hexahydro-1H-1,4-benzodiazonine]	–
398	CC(=O)N1[C@H](CC23CC4CC(CC(C4)C2)C3)C(=O)N(Cc2cccc(Cl)c2)c2ccccc2C(=O)C[C@H]1C(=O)NCC(=O)O [Example 62, (3R,5S)-4-acetyl-3-(1-adamantyl)methyl-1-(3-chlorobenzyl)-5-carboxymethylaminocarbonyl-2,7-dioxo-2,3,4,5,6,7-hexahydro-1H-1,4-benzodiazonine]	–
398	CC(=O)N1[C@H](CC23CC4CC(CC(C4)C2)C3)C(=O)N(Cc2ccccc2F)c2ccccc2C(=O)C[C@H]1C(=O)NCC(=O)NS(C)(=O)=O [Example 65, (3R,5S)-4-acetyl-3-(1-adamantyl)methyl-1-(2-fluorobenzyl)-5-methanesulphonamidocarboxymethylaminocarbonyl-2,7-dioxo-2,3,4,5,6,7-hexahydro-1H-1,4-benzodiazonine]	–
501	CC(=O)N1[C@H](CC23CC4CC(CC(C4)C2)C3)C(=O)N(Cc2ccccc2F)c2ccccc2C(=O)C[C@H]1C(=O)N[C@@H](C)C(=O)NS(C)(=O)=O [Example 66, (3R,5S)-4-acetyl-3-(1-adamantyl)methyl-1-(2-fluorobenzyl)-5-[(1S)-methanesulphonamidocarboxy]ethylaminocarbonyl-2,7-dioxo-2,3,4,5,6,7-hexahydro-1H-1,4-benzodiazonine]	–
158	CC(=O)N1[C@H](CC23CC4CC(CC(C4)C2)C3)C(=O)N(Cc2ccccc2)c2ccccc2C(=O)C[C@H]1C(=O)NCc1nn[nH]n1 [Example 67, (3R,5S)-4-acetyl-3-(1-adamantyl)methyl-1-benzyl-5-tetrazolomethylaminocarbonyl-2,7-dioxo-2,3,4,5,6,7-hexahydro-1H-1,4-benzodiazonine]	–
–	CC(=O)N1[C@H](CC23CC4CC(CC(C4)C2)C3)C(=O)N(Cc2ccccc2F)c2ccccc2C(=O)C[C@H]1C(=O)NCc1nn[nH]n1 [Example 68, (3R,5S)-4-acetyl-3-(1-adamantyl)methyl-1-(2-fluorobenzyl)-5-(5-tetrazolo)methylaminocarbonyl-2,7-dioxo-2,3,4,5,6,7-hexahydro-1H-1,4-benzodiazonine]	pKi (Mouse cortex) (CCKB receptor): 6.8
1000	CC(=O)N1[C@H](CC23CC4CC(CC(C4)C2)C3)C(=O)N(Cc2cccc(C)c2)c2ccccc2C(=O)C[C@H]1C(=O)NCC(=O)O [Example 71, (3R,5S)-4-acetyl-3-(1-adamantyl)methyl-1-(3-methylbenzyl)-5-carboxymethylaninocarbonyl-2,7-dioxo-2,3,4,5,6,7-hexahydro-1H-1,4-benzodiazonine]	–
631	CC(=O)N1[C@H](CC23CC4CC(CC(C4)C2)C3)C(=O)N(Cc2ccc(C)cc2)c2ccccc2C(=O)C[C@H]1C(=O)NCC(=O)O [Example 72, (3R,5S)-4-acetyl-3-(1-adamantyl)methyl-1-(4-methylbenzyl)-5-carboxymethylaminocarbonyl-2,7-dioxo-2,3,4,5,6,7-hexahydro-1H-1,4-benzodiazonine]	–
2510	CC(=O)N1[C@@H](C(=O)NCC(=O)O)CC(=O)c2ccccc2N(Cc2ccccc2F)C(=O)[C@@H]1CC12CC3CC(CC(C3)C1)C2 [Example 73, (3S ,5R)-4-acetyl-3-(1-adamantyl)methyl-1-(2-fluorobenzyl)-5-carboxymethylaminocarbonyl-2,7-dioxo-2,3,4,5,6,7-hexahydro-1H-1,4-benzodiazonine]	–
158	CC(=O)N1[C@H](CC23CC4CC(CC(C4)C2)C3)C(=O)N(Cc2ccccc2C)c2ccccc2C(=O)C[C@H]1C(=O)NCC(=O)O [Example 74, (3R,5S)-4-acetyl-3-(1-adamantyl)methyl-1-(2-methylbenzyl)-5-carboxymethylaminocarbonyl-2,7-dioxo-2,3,4,5,6,7-hexahydro-1H-1,4-benzodiazonine]	–
–	COc1ccc(CN2C(=O)[C@@H](CC34CC5CC(CC(C5)C3)C4)N(C(C)=O)[C@H](C(=O)NCC(=O)O)CC(=O)c3ccccc32)cc1 [Example 75, (3R,5S)-4-acetyl-3-(1-adamantyl)methyl-1-(4-methoxybenzyl)-5-carboxymethylaminocarbonyl-2,7-dioxo-2,3,4,5,6,7-hexahydro-1H-1,4-benzodiazonine]	pKi (Mouse cortex) (CCKB receptor): 5.9
–	(+/-)-trans-4-acetyl-3-(1-adamantyl)methyl-1-benzyl-5-carboxymethylaminocarbonyl-2,7-dioxo-9-methyl-2,3,4,5,6,7-hexahydro-1H-1,4-benzodiazonine [Example 70]	pKi (Mouse cortex) (CCKB receptor): 6.9
